This passage reports IC50 results from ChEMBL document CHEMBL4828774, “Novel PRMT5 Inhibitors for Treating Cancer” (ACS Med Chem Lett, 2021).

The nature of the assay: Cytotoxicity against human HCT116-MTAP null cells assessed as reduction in cell viability incubated for 6 days by CellTiter-Glo luminescent assay. The assay is classed as functional, cell-based. The settings on record: 144 h. (ATP-based viability assays read luminescence as a measure of living cells.)

As usually defined, the IC50 is the midpoint of a concentration-inhibition curve. With `Cc1cc2cc(C(=O)N(Cc3ccc(C(F)(F)F)cn3)[C@@H]3CCCc4cn[nH]c43)ccc2nc1N`, the half-maximal inhibitory concentration (IC50) came out at 10 nM.

Take `C[C@H](c1ncccn1)N(Cc1ccc(C(F)(F)F)nn1)C(=O)c1cnc2nc(N)c(I)cc2c1`: the IC50 was found to be 15 nM.

For `Cc1cc2cc(C(=O)N(Cc3ccc(Br)cn3)[C@H](C)c3ncccn3)ccc2nc1N`, the IC50 came to 15 nM.

With `Cc1cc2cc(C(=O)N(Cc3ccc(C(F)(F)F)cn3)[C@@H]3CCOc4ccc(F)nc43)ccc2nc1N`, the IC50 is 13 nM.

For `Cc1cc2cc(C(=O)N(Cc3ccc(C(F)(F)F)cn3)[C@@H]3CCCc4nccnc43)ccc2nc1N`, the IC50 turned out to be 12 nM.

`Cc1cc2cc(C(=O)N(Cc3ccc(C(F)(F)F)cn3)[C@H](C)c3cccc(F)n3)ccc2nc1N`: the IC50 came out at 13 nM.
